Measured values reported in patent US9242993B2, “Morpholino substituted bicyclic pyrimidine urea or carbamate derivatives as mTOR inhibitors” (CELLZOME LIMITED, priority 2011, dated 2016).

What was measured:
mTOR = mTOR (Homo sapiens, UniProt P42345); test: biochemical
[1] = system: Akt serine-473 phosphorylation; test: In vitro phospho-Akt cellular assay; type: cell-based; conditions: Homo sapiens; HEK293T/17 cells, 2 hours; read-out: pAkt inhibition value (IC50), activity level
Source text: Activation of mTOR signaling results in phosphorylation of several downstream targets. In cells, mTOR exists in two different protein complexes. The mTOR Complex-1 (mTORC1) phosphorylates and activates S6 Kinase 1 (S6K1) and S6 Kinase 2 (S6K2) (also known as p70S6K) which then phosphorylate S6 Ribosomal Protein (S6RP) (also known as RPS6)3. S6RP is phosphorylated on serine 235, serine 236, serine 240 and serine 244 by both pS6K1 and pS6K2. The mTOR Complex-2 (mTORC2) phosphorylates AKT on serine 473 which activates the AKT signaling pathway.
The assay measures a test compound's inhibition of S6RP serine-240/244 phosphorylation and inhibition of Akt serine-473 phosphorylation in human embryonic kidney derived HEK293T/17 cells (ATCC CRL-11268).
The HEK293T/17 cell line is maintained in DMEM media (Invitrogen catalogue number 41965-039) supplemented with 10% FCS at 37° C. in a 5% CO2 humidified incubator.
Cells are seeded in 96-well plates at 40,000 cells/well (pS6RP S240/244 assay) or 80,000 cells/well (pAkt S473 assay) in 90 μl growth media (DMEM, 2% FCS). Plates are incubated for 1 hour in a humidified incubator to allow the cells to adhere. Cells are treated with 8 concentrations of test compounds or DMSO alone for controls (final DMSO concentration 0.1%) and incubated at 37° C. for 2 hours. Then 20 μl of 5× concentrated lysis buffer (750 mM NaCl, 100 mM Tris pH7.4, 5 mM ADTA, 5 mM EGTA, 5% Triton X-100) is added, plates are sealed and incubated for 15 minutes at 4° C. with gentle shaking. After cell lysis, 25 μl cell lysate is transferred to a MesoScale plate coated with an antibody to pS6RP Ser240/244 (MesoScale Discovery K150DGD-3) or an antibody to pAkt Ser 473 (MesoScale Discovery K151DGD-3). Plates have been blocked before by incubation with 150 μl MesoScale Discovery Blocking Solution-A for 1 hour at room temperature followed by washing with 150 μl 1× Tris wash buffer per well. After the transfer of the cell lysate to the MSD plate, the pS6RP (or pAkt) protein is captured on the coated antibody by incubation at room temperature for 1 hour with gentle shaking. After the capture step the plate is washed three times with 150 μl of 1× Tris wash buffer per well. Then 25 μl detection antibody conjugated with a Sulfo-Tag is added and incubated for 1 hour at room temperature with gentle shaking. Subsequently the antibody solution is removed and the plate is washed 3 times with 150 μl 1× Tris wash buffer per well and 150 μl Read buffer is added. The plates are analysed on a MSD 2400 Plate Reader (MesoScale Discovery). Data analysis is performed using nonlinear regression for a sigmoidal dose-response with a variable slope.

[2] = system: S6RP serine-240/244 phosphorylation; test: In vitro phospho-S6 cellular assay; type: cell-based; conditions: Homo sapiens; HEK293T/17 cells, 2 hours; read-out: pS6 inhibition value (IC50), activity level
In short: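 HEK293T/17 cells (40,000/well for pS6RP, 80,000/well for pAkt) in DMEM, 2% FCS treated 2 h at 37 °C with 8 compound concentrations (0.1% DMSO). Lysates assayed by MesoScale sandwich electrochemiluminescence for pS6RP Ser240/244 or pAkt Ser473. Curves fitted by sigmoidal variable-slope regression.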

[3] = biological target: DNA-dependent protein kinase (DNA-PK) (Homo sapiens, UniProt P78527); test: biochemical
[4] = Bi-directional Caco-2 permeability assay; type: in vitro ADME; conditions: human, pH 7.4, Caco-2, 10 uM, pH7.4, read-out: Efflux ratio (ER), Papp B>A/Papp A>B
Protocol: Bi-directional Caco-2 assays to assess the permeability of compounds in the gi tract, were performed as described below.
2×10^5 cells/well were seeded in plating medium consisting of DMEM+GlutaMAXI+1% NEAA+10% FBS (FetalClone II)+1% Pen/Strep. The medium was changed every 2-3 days.
50 uM Lucifer Yellow (Sigma) was added to the donor buffer in all wells to assess integrity of the cell layers by monitoring Lucifer Yellow permeation. As Lucifer Yellow (LY) cannot freely permeate lipophilic barriers, a high degree of LY transport indicates poor integrity of the cell layer. After a 1 hr incubation at 37° C. while shaking at an orbital shaker at 150 rpm, 70 ul aliquots were taken from both apical (A) and basal (B) chambers and added to 100 ul 50:50 acetonitrile:water solution containing analytical internal standard (0.5 uM carbamazepine) in a 96 well plate.
Concentrations of compound in the samples were measured by high performance liquid-chromatography/mass spectroscopy (LC-MS/MS).
The Efflux ratio, as an indication of active efflux from the apical cell surface of Caco-2 cells, was calculated using the ratio of Papp B>A/Papp A>B.

[5] = system: IFNγ release in whole blood; test: In vitro human whole blood assay (IFNγ release); type: cell-based; conditions: αCD3/αCD28 and IL-2 stimulation, 18 hours, read-out: WB inhibition value (pIC50) (converted)
In short: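 Na-heparin human whole blood, diluted 1.4-fold in RPMI, was preincubated 1 h at 37° C with 10 compound concentrations (0.2% DMSO), then stimulated with 1 μg/ml αCD3, 1 μg/ml αCD28 and 10 ng/ml IL-2 for 18 h. Plasma IFNγ quantified by MesoScale electrochemiluminescence immunoassay; values from variable-slope sigmoidal dose-response fit.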

Sequence of DNA-dependent protein kinase (DNA-PK) (P78527 whole entry): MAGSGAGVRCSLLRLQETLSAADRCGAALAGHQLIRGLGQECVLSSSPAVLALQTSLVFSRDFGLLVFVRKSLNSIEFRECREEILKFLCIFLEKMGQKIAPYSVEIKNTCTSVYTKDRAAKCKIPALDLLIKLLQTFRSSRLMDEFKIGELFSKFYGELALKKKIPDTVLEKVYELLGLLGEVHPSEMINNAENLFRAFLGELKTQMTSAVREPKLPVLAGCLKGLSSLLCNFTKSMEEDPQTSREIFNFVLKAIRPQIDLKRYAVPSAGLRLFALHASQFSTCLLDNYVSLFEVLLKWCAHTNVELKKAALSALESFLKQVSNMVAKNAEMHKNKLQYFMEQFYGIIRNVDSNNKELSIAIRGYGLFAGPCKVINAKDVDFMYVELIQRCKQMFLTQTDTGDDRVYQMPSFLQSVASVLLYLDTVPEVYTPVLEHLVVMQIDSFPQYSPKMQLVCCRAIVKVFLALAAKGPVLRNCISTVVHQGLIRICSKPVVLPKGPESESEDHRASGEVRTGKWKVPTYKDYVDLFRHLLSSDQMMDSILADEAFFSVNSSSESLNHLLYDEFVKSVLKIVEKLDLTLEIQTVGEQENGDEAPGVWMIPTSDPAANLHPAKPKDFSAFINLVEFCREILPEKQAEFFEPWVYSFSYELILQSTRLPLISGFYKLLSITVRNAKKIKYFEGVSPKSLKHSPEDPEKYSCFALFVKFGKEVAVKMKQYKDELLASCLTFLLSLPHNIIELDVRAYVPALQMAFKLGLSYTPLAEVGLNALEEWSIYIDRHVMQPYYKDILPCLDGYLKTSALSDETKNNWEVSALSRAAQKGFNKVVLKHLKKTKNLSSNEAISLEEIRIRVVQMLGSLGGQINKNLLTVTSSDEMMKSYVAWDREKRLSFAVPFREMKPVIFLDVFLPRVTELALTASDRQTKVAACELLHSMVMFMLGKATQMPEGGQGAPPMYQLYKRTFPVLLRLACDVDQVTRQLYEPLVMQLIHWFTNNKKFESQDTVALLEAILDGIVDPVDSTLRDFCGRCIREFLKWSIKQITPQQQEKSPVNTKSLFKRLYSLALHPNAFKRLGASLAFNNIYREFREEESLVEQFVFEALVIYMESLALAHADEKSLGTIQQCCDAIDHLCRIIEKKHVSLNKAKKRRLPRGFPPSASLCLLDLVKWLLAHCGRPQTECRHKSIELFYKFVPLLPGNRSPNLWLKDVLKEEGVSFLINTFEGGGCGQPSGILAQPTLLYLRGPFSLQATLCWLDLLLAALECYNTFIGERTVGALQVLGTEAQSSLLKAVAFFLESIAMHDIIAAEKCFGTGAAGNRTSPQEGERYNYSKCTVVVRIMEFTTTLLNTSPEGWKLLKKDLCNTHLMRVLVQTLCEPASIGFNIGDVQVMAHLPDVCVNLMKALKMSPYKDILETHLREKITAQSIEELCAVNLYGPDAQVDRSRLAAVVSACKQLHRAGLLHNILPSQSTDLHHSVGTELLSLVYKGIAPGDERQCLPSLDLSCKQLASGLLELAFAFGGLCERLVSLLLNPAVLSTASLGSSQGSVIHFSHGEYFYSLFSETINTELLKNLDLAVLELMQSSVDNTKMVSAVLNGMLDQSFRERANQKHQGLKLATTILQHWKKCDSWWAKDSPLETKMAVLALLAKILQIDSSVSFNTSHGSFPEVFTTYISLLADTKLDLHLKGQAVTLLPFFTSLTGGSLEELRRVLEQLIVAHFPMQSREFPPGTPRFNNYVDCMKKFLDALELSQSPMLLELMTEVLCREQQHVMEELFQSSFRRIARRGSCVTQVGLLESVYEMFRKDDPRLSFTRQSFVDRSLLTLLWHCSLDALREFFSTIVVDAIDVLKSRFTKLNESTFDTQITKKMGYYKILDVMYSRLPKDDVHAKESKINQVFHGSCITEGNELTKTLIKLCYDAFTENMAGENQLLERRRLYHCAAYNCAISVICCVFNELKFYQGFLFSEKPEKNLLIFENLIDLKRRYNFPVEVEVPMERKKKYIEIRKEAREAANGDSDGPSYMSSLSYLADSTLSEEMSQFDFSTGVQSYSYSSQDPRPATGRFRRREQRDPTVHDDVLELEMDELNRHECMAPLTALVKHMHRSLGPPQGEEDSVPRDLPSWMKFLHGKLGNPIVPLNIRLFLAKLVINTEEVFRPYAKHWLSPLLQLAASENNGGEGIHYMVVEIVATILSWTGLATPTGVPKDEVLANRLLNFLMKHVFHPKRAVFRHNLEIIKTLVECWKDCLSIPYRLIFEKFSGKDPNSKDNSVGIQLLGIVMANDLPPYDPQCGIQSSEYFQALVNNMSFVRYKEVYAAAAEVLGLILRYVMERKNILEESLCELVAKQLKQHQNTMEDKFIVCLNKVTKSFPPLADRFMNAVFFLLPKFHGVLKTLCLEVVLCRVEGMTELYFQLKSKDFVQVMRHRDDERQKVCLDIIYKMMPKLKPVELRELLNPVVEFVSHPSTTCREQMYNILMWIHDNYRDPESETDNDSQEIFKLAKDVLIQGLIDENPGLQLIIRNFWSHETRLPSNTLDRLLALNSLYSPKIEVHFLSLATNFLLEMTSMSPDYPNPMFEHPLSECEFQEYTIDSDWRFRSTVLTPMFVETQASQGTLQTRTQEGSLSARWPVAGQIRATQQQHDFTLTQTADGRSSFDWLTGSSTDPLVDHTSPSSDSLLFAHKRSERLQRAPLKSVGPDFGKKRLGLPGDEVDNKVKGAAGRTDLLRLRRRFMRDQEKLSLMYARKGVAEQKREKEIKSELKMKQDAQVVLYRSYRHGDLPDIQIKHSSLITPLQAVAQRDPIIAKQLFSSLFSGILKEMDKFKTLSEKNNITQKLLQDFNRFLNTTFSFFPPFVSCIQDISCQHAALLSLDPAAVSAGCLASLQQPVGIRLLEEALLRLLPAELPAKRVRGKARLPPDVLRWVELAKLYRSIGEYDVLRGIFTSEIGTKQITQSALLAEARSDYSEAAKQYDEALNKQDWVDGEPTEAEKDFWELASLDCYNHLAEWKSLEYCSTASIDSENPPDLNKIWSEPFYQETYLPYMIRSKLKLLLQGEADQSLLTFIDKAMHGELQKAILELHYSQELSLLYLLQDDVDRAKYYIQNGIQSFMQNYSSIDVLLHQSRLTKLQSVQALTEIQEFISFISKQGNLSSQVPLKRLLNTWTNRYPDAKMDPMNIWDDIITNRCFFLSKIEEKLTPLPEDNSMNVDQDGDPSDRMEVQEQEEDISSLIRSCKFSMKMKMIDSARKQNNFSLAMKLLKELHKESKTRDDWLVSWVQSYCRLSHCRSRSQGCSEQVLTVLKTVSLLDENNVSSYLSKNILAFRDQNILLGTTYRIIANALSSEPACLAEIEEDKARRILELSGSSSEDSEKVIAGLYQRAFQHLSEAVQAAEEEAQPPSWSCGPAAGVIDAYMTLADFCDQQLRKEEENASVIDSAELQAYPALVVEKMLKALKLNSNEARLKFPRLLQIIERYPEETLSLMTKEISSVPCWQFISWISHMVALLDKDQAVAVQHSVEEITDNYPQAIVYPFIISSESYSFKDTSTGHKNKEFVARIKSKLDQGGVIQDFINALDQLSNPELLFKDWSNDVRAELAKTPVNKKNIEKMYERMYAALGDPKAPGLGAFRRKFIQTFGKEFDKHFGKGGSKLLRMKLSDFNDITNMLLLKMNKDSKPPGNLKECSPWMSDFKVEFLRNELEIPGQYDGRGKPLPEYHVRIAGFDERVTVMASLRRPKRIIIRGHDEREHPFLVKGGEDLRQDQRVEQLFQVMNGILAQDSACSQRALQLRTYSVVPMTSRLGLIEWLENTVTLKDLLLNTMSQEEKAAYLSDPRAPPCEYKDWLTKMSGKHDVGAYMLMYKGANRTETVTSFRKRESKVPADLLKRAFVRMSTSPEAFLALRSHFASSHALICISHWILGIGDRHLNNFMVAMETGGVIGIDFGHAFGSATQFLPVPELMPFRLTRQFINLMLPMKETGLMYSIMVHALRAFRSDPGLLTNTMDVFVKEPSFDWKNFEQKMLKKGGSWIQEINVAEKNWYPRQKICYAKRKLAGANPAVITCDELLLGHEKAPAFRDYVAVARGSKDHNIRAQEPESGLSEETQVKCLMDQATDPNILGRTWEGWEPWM

Row | Structure (SMILES) | IC50 (mTOR) | IC50 [1] | IC50 [2] | IC50 [3] | efflux ratio at 1 h, 10 uM [4] | IC50 [5]
1 | C[C@@H]1c2c(nc(-c3ccc(NC(=O)NC4CC4)cc3)nc2N2CCOC[C@@H]2C)CS1(=O)=O (single isomer, unassigned) [Example 9] | < 100 nM | < 100 nM | < 100 nM | – | – | –
2 | C[C@H]1COCCN1c1nc(-c2ccc(NC(=O)NC3CC3)cc2)nc2c1[C@H](C)S(=O)(=O)C2 (single isomer, unassigned) [Example 10] | < 100 nM | < 100 nM | < 100 nM | – | – | –
3 | C[C@H]1COCCN1c1nc(-c2ccc(NC(=O)NC3CC3)cc2)nc2c1S(=O)(=O)CC2 [Example 5, (S)-1-cyclopropyl-3-(4-(4-(3-methylmorpholino)-5,5-dioxido-6,7-dihydrothieno[3,2-d]pyrimidin-2-yl)phenyl)urea] | < 100 nM | < 100 nM | < 100 nM | > 10000 nM | – | –
4 | CCNC(=O)Nc1ccc(-c2nc(N3CCOC[C@@H]3C)c3c(n2)C(C)(C)S(=O)(=O)C3)cc1 [Example 62, (S)-1-(4-(7,7-dimethyl-4-(3-methylmorpholino)-6,6-dioxido-5,7-dihydrothieno[3,4-d]pyrimidin-2-yl)phenyl)-3-ethylurea] | – | – | < 100 nM | > 10000 nM | 22 | 200 nM

The next lines start with results.

Row | IC50 (mTOR) | IC50 [1] | IC50 [2] | IC50 [3] | Structure (SMILES) | efflux ratio at 1 h, 10 uM [4] | IC50 [5]
5 | < 100 nM | < 100 nM | < 100 nM | > 10000 nM | C[C@H]1COCCN1c1nc(-c2ccc(NC(=O)NC3CC3)cc2)nc2c1CSC2 [Example 1, (S)-1-cyclopropyl-3-(4-(4-(3-methylmorpholino)-5,7-dihydrothieno[3,4-d]pyrimidin-2-yl)phenyl)urea] | – | –
6 | < 100 nM | < 100 nM | < 100 nM | – | C[C@H]1COCCN1c1nc(-c2ccc(NC(=O)NC3CC3)cc2)nc2c1CS(=O)(=O)C2 [Example 2, (S)-1-cyclopropyl-3-(4-(4-(3-methylmorpholino)-6,6-dioxido-5,7-dihydrothieno[3,4-d]pyrimidin-2-yl)phenyl)urea] | – | –
7 | < 100 nM | – | < 100 nM | > 10000 nM | CCC1COCCN1c1nc(-c2ccc(NC(=O)NC3CC3)cc2)nc2c1CS(=O)(=O)C2 (stereo not shown) [Example 27, 1-cyclopropyl-3-(4-(4-(3-ethylmorpholino)-6,6-dioxido-5,7-dihydrothieno[3,4-d]pyrimidin-2-yl)phenyl)urea] | 25 | –
